Results taken from patent US9206184B2, “Disubstituted benzothienyl-pyrrolotriazines and uses thereof” (BAYER INTELLECTUAL PROPERTY GmbH, priority 2011, dated 2015).

Experiments:
human FGFR-3 = human FGFR-3 (Homo sapiens (Human), UniProt P22607); assay: FGFR-3 kinase assay (TR-FRET); format: biochemical; settings: 10 μM ATP; 15 min pre-incubation with enzyme; compounds of the invention
human FGFR-1 = human FGFR-1 (Homo sapiens, UniProt P11362); assay: FGFR-1 high ATP kinase assay (TR-FRET); format: biochemical; settings: 2 mM ATP; 15 min pre-incubation with enzyme; compounds of the invention
Chain of human FGFR-1 (P11362 22-822 limits assumed): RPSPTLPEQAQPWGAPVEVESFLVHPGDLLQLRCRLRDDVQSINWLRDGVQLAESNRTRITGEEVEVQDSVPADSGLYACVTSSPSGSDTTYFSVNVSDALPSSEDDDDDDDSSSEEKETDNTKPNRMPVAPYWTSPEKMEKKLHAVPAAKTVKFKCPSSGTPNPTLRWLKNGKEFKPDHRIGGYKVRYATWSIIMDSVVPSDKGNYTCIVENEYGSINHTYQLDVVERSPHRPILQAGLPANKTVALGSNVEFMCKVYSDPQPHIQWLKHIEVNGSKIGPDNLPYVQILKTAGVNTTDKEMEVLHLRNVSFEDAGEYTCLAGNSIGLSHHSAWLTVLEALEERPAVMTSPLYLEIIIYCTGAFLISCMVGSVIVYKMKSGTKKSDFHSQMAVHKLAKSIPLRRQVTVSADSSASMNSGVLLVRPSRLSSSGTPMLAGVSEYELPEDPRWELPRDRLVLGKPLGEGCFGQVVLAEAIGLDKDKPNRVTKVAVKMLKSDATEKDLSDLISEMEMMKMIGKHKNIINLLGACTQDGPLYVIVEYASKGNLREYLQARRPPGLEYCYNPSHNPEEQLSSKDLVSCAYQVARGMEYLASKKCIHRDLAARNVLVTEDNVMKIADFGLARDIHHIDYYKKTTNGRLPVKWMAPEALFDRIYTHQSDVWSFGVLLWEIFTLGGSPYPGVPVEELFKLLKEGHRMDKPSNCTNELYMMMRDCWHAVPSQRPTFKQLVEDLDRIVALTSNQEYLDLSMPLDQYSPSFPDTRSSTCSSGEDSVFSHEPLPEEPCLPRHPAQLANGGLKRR

Chain of human FGFR-3 (P22607 397-806): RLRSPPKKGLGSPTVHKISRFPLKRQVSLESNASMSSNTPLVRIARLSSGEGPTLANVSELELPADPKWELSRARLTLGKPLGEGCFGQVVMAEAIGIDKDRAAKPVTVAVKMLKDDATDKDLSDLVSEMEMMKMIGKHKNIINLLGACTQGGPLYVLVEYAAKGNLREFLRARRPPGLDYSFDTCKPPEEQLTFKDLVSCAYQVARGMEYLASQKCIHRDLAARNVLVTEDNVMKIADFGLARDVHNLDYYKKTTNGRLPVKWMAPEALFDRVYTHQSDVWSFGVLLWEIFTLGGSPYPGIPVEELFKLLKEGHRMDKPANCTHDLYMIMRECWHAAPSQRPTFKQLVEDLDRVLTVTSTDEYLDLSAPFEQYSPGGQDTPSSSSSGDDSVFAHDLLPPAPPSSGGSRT

## COc1cc(C)cc2cc(-c3c(CNCC(C)(C)O)c(C)n4ncnc(N)c34)sc12 [Example 78, 1-({[4-Amino-5-(7-methoxy-5-methyl-1-benzothiophen-2-yl)-7-methylpyrrolo[2,1-f][1,2,4]triazin-6-yl]methyl}amino)-2-methylpropan-2-ol]
Human FGFR-3
  IC50: 2 nM
Human FGFR-1
  IC50: 1.7 nM

## COc1cc(C)cc2cc(-c3c(CN4CCNC(=O)C4)c(CN4CCN(C(C)=O)CC4)n4ncnc(N)c34)sc12 [Example 59, 4-({7-[(4-Acetylpiperazin-1-yl)methyl]-4-amino-5-(7-methoxy-5-methyl-1-benzothiophen-2-yl)pyrrolo[2,1-f][1,2,4]triazin-6-yl}methyl)piperazin-2-one]
Human FGFR-3
  IC50: 6.8 nM
Human FGFR-1
  IC50: 3.8 nM

## COc1cc(C)cc2cc(-c3c(CNC(C)=O)c(CN4CCNC(=O)C4)n4ncnc(N)c34)sc12 [Example 67, N-({4-Amino-5-(7-methoxy-5-methyl-1-benzothiophen-2-yl)-7-[(3-oxopiperazin-1-yl)methyl]-pyrrolo[2,1-f][1,2,4]triazin-6-yl}methyl)acetamide]
Human FGFR-3
  IC50: 9.4 nM
Human FGFR-1
  IC50: 5 nM

## CCOCc1c(-c2cc3cc(C)cc(OC)c3s2)c2c(N)ncnn2c1CN1CC(F)(F)C1 [Example 102]
Human FGFR-3
  IC50: 39.8 nM
Human FGFR-1
  IC50: 39.2 nM

## CCOCc1c(-c2cc3cc(C)cc(OC)c3s2)c2c(N)ncnn2c1C(C)O (stereo not drawn) [Example 90, 1-[4-Amino-6-(ethoxymethyl)-5-(7-methoxy-5-methyl-1-benzothiophen-2-yl)pyrrolo[2,1-f][1,2,4]-triazin-7-yl]ethanol]
Human FGFR-3
  IC50: 11 nM
Human FGFR-1
  IC50: 9.9 nM

## CCOCc1c(-c2cc3cc(C)cc(OC)c3s2)c2c(N)ncnn2c1C(O)C1CC1 (stereo not drawn) [Example 91, [4-Amino-6-(ethoxymethyl)-5-(7-methoxy-5-methyl-1-benzothiophen-2-yl)pyrrolo[2,1-f][1,2,4]-triazin-7-yl](cyclopropyl)methanol]
Human FGFR-3
  IC50: 31.1 nM
Human FGFR-1
  IC50: 52.9 nM

## COC(=O)c1c(-c2cc3cc(C)cc(OC)c3s2)c2c(N)ncnn2c1C(=O)N1CCNCC1 [Example 60, Methyl 4-amino-5-(7-methoxy-5-methyl-1-benzothiophen-2-yl)-7-(piperazin-1-ylcarbonyl)pyrrolo-[2,1-f][1,2,4]triazine-6-carboxylate bis(formiate)]
Human FGFR-3
  IC50: 77.9 nM
Human FGFR-1
  IC50: 16.2 nM

## COc1cc(C)cc2cc(-c3c(COCCO)c(CN4CCNC(=O)C4)n4ncnc(N)c34)sc12 [Example 21, 4-({4-Amino-6-[(2-hydroxyethoxy)methyl]-5-(7-methoxy-5-methyl-1-benzothiophen-2-yl)pyrrolo-[2,1-f][1,2,4]triazin-7-yl}methyl)piperazin-2-one formiate]
Human FGFR-3
  IC50: 13 nM
Human FGFR-1
  IC50: 4.2 nM

## CCOCc1c(-c2cc3cc(C)cc(OC)c3s2)c2c(N)ncnn2c1C(=O)N(C)C [Example 114]
Human FGFR-3
  IC50: 9.6 nM
Human FGFR-1
  IC50: 11.2 nM

## COc1cc(C)cc2cc(-c3c(CO)c(Cl)n4ncnc(N)c34)sc12 [Example 79, [4-Amino-7-chloro-5-(7-methoxy-5-methyl-1-benzothiophen-2-yl)pyrrolo[2,1-f][1,2,4]triazin-6-yl]methanol]
Human FGFR-3
  IC50: 17.9 nM
Human FGFR-1
  IC50: 12.6 nM

## COc1cc(C)cc2cc(-c3c(CO)c(C#N)n4ncnc(N)c34)sc12 [Example 68, 4-Amino-6-(hydroxymethyl)-5-(7-methoxy-5-methyl-1-benzothiophen-2-yl)pyrrolo[2,1-f][1,2,4]-triazine-7-carbonitrile]
Human FGFR-3
  IC50: 42.7 nM
Human FGFR-1
  IC50: 27 nM

## CCOCc1c(-c2cc3cc(C)cc(OC)c3s2)c2c(N)ncnn2c1C(=O)N1CNC(=O)C1 [Example 117]
Human FGFR-3
  IC50: 5.3 nM
Human FGFR-1
  IC50: 8.8 nM

## CCOCc1c(-c2cc3cc(C)cc(OC)c3s2)c2c(N)ncnn2c1CN1CC[C@](C)(N)C1 [Example 15, 7-{[(3S)-3-Amino-3-methylpyrrolidin-1-yl]methyl}-6-(ethoxymethyl)-5-(7-methoxy-5-methyl-1-benzothiophen-2-yl)pyrrolo[2,1-f][1,2,4]triazin-4-amine]
Human FGFR-3
  IC50: 1 nM
Human FGFR-1
  IC50: 1 nM

## COc1cc(C)cc2cc(-c3c(CNCC(C)O)c(CN4CCOCC4)n4ncnc(N)c34)sc12 (racemic) [Example 53, rac-1-({[4-Amino-5-(7-methoxy-5-methyl-1-benzothiophen-2-yl)-7-(morpholin-4-ylmethyl)pyrrolo[2,1-f][1,2,4]triazin-6-yl]methyl}amino)propan-2-ol]
Human FGFR-3
  IC50: 2.5 nM
Human FGFR-1
  IC50: 3.9 nM

## CCOCc1c(-c2cc3cc(C)cc(OC)c3s2)c2c(N)ncnn2c1CN1CCS(=O)(=O)CC1 [Example 99]
Human FGFR-3
  IC50: 36.9 nM
Human FGFR-1
  IC50: 24.8 nM

## COc1cc(C)cc2cc(-c3c(CO)c(CN4CCNC(=O)C4)n4ncnc(N)c34)sc12 [Example 13, 4-{[4-Amino-6-(hydroxymethyl)-5-(7-methoxy-5-methyl-1-benzothiophen-2-yl)pyrrolo[2,1-f]-[1,2,4]triazin-7-yl]methyl}piperazin-2-one]
Human FGFR-3
  IC50: 10 nM
Human FGFR-1
  IC50: 2.5 nM

## COc1cc(C)cc2cc(-c3c(CNCC(C)(C)O)c(Cl)n4ncnc(N)c34)sc12 [Example 81, 1-({[4-Amino-7-chloro-5-(7-methoxy-5-methyl-1-benzothiophen-2-yl)pyrrolo[2,1-f][1,2,4]triazin-6-yl]methyl}amino)-2-methylpropan-2-ol formiate]
Human FGFR-3
  IC50: 0.5 nM
Human FGFR-1
  IC50: 1.9 nM

## COc1cc(C)cc2cc(-c3c(C)c(CN4CCNCC4)n4ncnc(N)c34)sc12 [Example 84, 5-(7-Methoxy-5-methyl-1-benzothiophen-2-yl)-6-methyl-7-(piperazin-1-ylmethyl)pyrrolo[2,1-f]-[1,2,4]triazin-4-amine formiate]
Human FGFR-3
  IC50: 16.5 nM
Human FGFR-1
  IC50: 3.7 nM

## COc1cc(C)cc2cc(-c3c(COCC(F)(F)F)c(CN4CCNCC4)n4ncnc(N)c34)sc12 [Example 29, 5-(7-Methoxy-5-methyl-1-benzothiophen-2-yl)-7-(piperazin-1-ylmethyl)-6-[(2,2,2-trifluoroethoxy)methyl]pyrrolo[2,1-f][1,2,4]triazin-4-amine formiate]
Human FGFR-3
  IC50: 2.5 nM
Human FGFR-1
  IC50: 1.6 nM

## COc1cc(C)cc2cc(-c3c(COCC4CC4)c(CN4CCNCC4)n4ncnc(N)c34)sc12 [Example 25, 6-[(Cyclopropylmethoxy)methyl]-5-(7-methoxy-5-methyl-1-benzothiophen-2-yl)-7-(piperazin-1-ylmethyl)pyrrolo[2,1-f][1,2,4]triazin-4-amine bis(formiate)]
Human FGFR-3
  IC50: 5.2 nM
Human FGFR-1
  IC50: 0.7 nM

## COc1cc(C)cc2cc(-c3c(CNCC(C)(C)O)c(CN4CCOCC4)n4ncnc(N)c34)sc12 [Example 54, 1-({[4-Amino-5-(7-methoxy-5-methyl-1-benzothiophen-2-yl)-7-(morpholin-4-ylmethyl)pyrrolo-[2,1-f][1,2,4]triazin-6-yl]methyl}amino)-2-methylpropan-2-ol]
Human FGFR-3
  IC50: 6.8 nM
Human FGFR-1
  IC50: 11.2 nM

## COc1cc(C)cc2cc(-c3c(CO)c(C(C)(C)O)n4ncnc(N)c34)sc12 [Example 73, 2-[4-Amino-6-(hydroxymethyl)-5-(7-methoxy-5-methyl-1-benzothiophen-2-yl)pyrrolo[2,1-f]-[1,2,4]triazin-7-yl]propan-2-ol]
Human FGFR-3
  IC50: 12.2 nM
Human FGFR-1
  IC50: 4.4 nM

## COc1cc(C)cc2cc(-c3c(CNC(C)=O)c(CN4CCN(C(C)=O)CC4)n4ncnc(N)c34)sc12 [Example 66, N-({7-[(4-Acetylpiperazin-1-yl)methyl]-4-amino-5-(7-methoxy-5-methyl-1-benzothiophen-2-yl)pyrrolo[2,1-f][1,2,4]triazin-6-yl}methyl)acetamide]
Human FGFR-3
  IC50: 3.7 nM
Human FGFR-1
  IC50: 1.6 nM

## CCOCc1c(-c2cc3cc(C)cc(OC)c3s2)c2c(N)ncnn2c1CN1CCN(C(C)=O)CC1 [Example 20, 1-(4-{[4-Amino-6-(ethoxymethyl)-5-(7-methoxy-5-methyl-1-benzothiophen-2-yl)pyrrolo[2,1-f]-[1,2,4]triazin-7-yl]methyl}piperazin-1-yl)ethanone]
Human FGFR-3
  IC50: 26.1 nM
Human FGFR-1
  IC50: 25 nM

## COc1cc(C)cc2cc(-c3c(CO)c(C)n4ncnc(N)c34)sc12 [Example 75, [4-Amino-5-(7-methoxy-5-methyl-1-benzothiophen-2-yl)-7-methylpyrrolo[2,1-f][1,2,4]triazin-6-yl]methanol]
Human FGFR-3
  IC50: 19.8 nM
Human FGFR-1
  IC50: 4.1 nM

## COc1cc(C)cc2cc(-c3c(COCC(N)=O)c(CN4CCN(C(C)=O)CC4)n4ncnc(N)c34)sc12 [Example 34, 2-({7-[(4-Acetylpiperazin-1-yl)methyl]-4-amino-5-(7-methoxy-5-methyl-1-benzothiophen-2-yl)pyrrolo[2,1-f][1,2,4]triazin-6-yl}methoxy)acetamide]
Human FGFR-3
  IC50: 10.5 nM
Human FGFR-1
  IC50: 6 nM

## COc1cc(C)cc2cc(-c3c(CNC(C)=O)c(CN4CCN(C=O)CC4)n4ncnc(N)c34)sc12 [Example 65, N-({4-Amino-7-[(4-formylpiperazin-1-yl)methyl]-5-(7-methoxy-5-methyl-1-benzothiophen-2-yl)pyrrolo[2,1-f][1,2,4]triazin-6-yl}methyl)acetamide formiate]
Human FGFR-3
  IC50: 3.1 nM
Human FGFR-1
  IC50: 5.6 nM

## COc1cc(C)cc2cc(-c3c(CN4CCNC(=O)C4)c(CN4CCOCC4)n4ncnc(N)c34)sc12 [Example 52, 4-{[4-Amino-5-(7-methoxy-5-methyl-1-benzothiophen-2-yl)-7-(morpholin-4-ylmethyl)pyrrolo-[2,1-f][1,2,4]triazin-6-yl]methyl}piperazin-2-one]
Human FGFR-3
  IC50: 7 nM
Human FGFR-1
  IC50: 9.7 nM

## COc1cc(C)cc2cc(-c3c(CNCC(C)(C)O)c(CN4CCN(C(C)=O)CC4)n4ncnc(N)c34)sc12 [Example 57, 1-(4-{[4-Amino-6-{[(2-hydroxy-2-methylpropyl)amino]methyl}-5-(7-methoxy-5-methyl-1-benzothiophen-2-yl)pyrrolo[2,1-f][1,2,4]triazin-7-yl]methyl}piperazin-1-yl)ethanone]
Human FGFR-3
  IC50: 1.8 nM
Human FGFR-1
  IC50: 3.2 nM

## COc1cc(C)cc2cc(-c3c(CN4CCNC(=O)C4)c(C(C)(C)O)n4ncnc(N)c34)sc12 [Example 74, 4-{[4-Amino-7-(2-hydroxypropan-2-yl)-5-(7-methoxy-5-methyl-1-benzothiophen-2-yl)pyrrolo-[2,1-f][1,2,4]triazin-6-yl]methyl}piperazin-2-one]
Human FGFR-3
  IC50: 1.4 nM
Human FGFR-1
  IC50: 4 nM
